These results are taken from patent US7205436B2, “Process for manufacture of quaternary ammonium tosylate salts of cinnamidoalkylamines and / or benzamidoalkylamines” (Galaxy Surfactants Limited, priority 2003, dated 2007).

This series can be described thus: UV absorption: molar extinction coefficient in methanol. The series is classed as physicochemical. Conditions: at λmax 310 nm in methanol.

As to `CCCCCCCCCCCC[N+](C)(C)CCCNC(=O)C=Cc1ccc(OC)cc1.Cc1ccc(S(=O)(=O)[O-])cc1` [Example I, p-methoxy cinnamidopropyldimethyllauryl ammonium tosylate], the “molar extinction coefficient, ε” value is reported as 25,000.
